Measured values published in ChEMBL document CHEMBL1157315, “Saponins from Polygala japonica and their effects on a forced swimming test in mice” (2006).

What was measured:
Mus musculus [1] = assay: Antidepressant activity in ICR mouse assessed as reduction in immobility time of forced swimming at 10 mg/kg, po administered once daily for 5 days by forced swimming test relative to control; assay type: functional; design: scale not given: the % may be the effect or the level left
Mus musculus [2] = assay: Antidepressant activity in ICR mouse assessed as reduction in immobility time of forced swimming at 100 mg/kg, po administered once daily for 5 days by forced swimming test relative to control; assay type: functional; design: scale not given: the % may be the effect or the level left

| Compound | Activity (Mus musculus [1]) [%] | Activity (Mus musculus [2]) [%] |
| --- | --- | --- |
| CNCCC(Oc1ccc(C(F)(F)F)cc1)c1ccccc1 (configuration not stated) [FLUOXETINE] | 50.7 | – |
| C[C@@H]1O[C@@H](O[C@H]2[C@H](OC(=O)[C@]34CCC(C)(C)C[C@H]3C3=CC[C@@H]5[C@@]6(C)C[C@H](O)[C@H](O)[C@@](C)(C(=O)O)[C@@H]6CC[C@@]5(C)[C@]3(C)CC4)O[C@H](CO)[C@@H](O)[C@@H]2O)[C@H](O)[C@H](O)[C@H]1O[C@@H]1OC[C@@H](O)[C@H](O)[C@H]1O [POLYGALASAPONIN E] | 35.4 | 58.1 |
| C[C@@H]1O[C@@H](O[C@H]2[C@H](OC(=O)[C@]34CCC(C)(C)C[C@H]3C3=CC[C@@H]5[C@@]6(C)C[C@H](O)[C@H](O)[C@@](C)(C(=O)O)[C@@H]6CC[C@@]5(C)[C@]3(C)CC4)O[C@H](CO)[C@@H](O)[C@@H]2O)[C@H](O)[C@H](O[C@H]2OC[C@@](O)(CO)[C@@H]2O)[C@H]1O[C@@H]1OC[C@@H](O)[C@H](O)[C@H]1O [POLYGALASAPONIN H] | 45.8 | 51.3 |
| C[C@@H]1O[C@@H](O[C@H]2[C@H](OC(=O)[C@]34CCC(C)(C)C[C@H]3C3=CC[C@@H]5[C@@]6(C)C[C@H](O)[C@H](O[C@@H]7O[C@H](CO)[C@@H](O)[C@H](O)[C@H]7O)[C@](C)(CO)[C@@H]6CC[C@@]5(C)[C@]3(C)CC4)O[C@H](CO)[C@@H](O[C@@H]3OC[C@@H](O)[C@H](O)[C@H]3O)[C@@H]2O[C@@H]2OC[C@](O)(CO)[C@H]2O)[C@H](O)[C@H](O)[C@H]1O [POLYGALASAPONIN V] | 16.8 | 16.6 |
